Key:
human mARC1 = molecular target: T1, human mARC1 (Homo sapiens, UniProt Q5VT66); test: mARC1 three-component system (mARC1, cytochrome b5, cytochrome b5 reductase): conversion of benzamidoxime to benzamidine, NADH consumption at 340 nm / HPLC of benzamidine; assay type: biochemical; details: recombinant mARC1 + CYB5B + CYB5R3, NADH, substrate BAO, 37° C., MES pH 6.0; FIGS. 1-4 (N-hydroxyurethane and urethane 1 mM in FIGS. 1, 3)
T1 construct: made in house; host or cells: Escherichia coli
T1 sequence (Q5VT66 53-337 limits assumed): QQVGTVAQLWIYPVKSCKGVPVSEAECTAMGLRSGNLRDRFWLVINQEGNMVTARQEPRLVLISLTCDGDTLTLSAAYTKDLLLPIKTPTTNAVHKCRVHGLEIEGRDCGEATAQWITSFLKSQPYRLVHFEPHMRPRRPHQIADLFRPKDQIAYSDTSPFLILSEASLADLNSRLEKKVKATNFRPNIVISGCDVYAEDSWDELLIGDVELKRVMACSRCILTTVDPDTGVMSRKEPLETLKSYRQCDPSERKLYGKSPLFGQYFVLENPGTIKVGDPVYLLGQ
Experimental: (§1) The compounds N-hydroxyurethane (R1═H, R2═CH2CH3) and ethyl-N-(3-chlorophenyl) -hydroxycarbamate (R1═3-chlorophenyl, R2═CH2CH3) are used as examples of active compounds. FIGS. 1, 3 and 4 show the absorbance at 340 nm in dependence on the time for an incubation with the three-component system mARC1 and mARC2, respectively, cytochrome b5 and cytochrome b5 reductase, which catalyze the conversion of the model substrate benzamidoxime (BAO) to benzamidine in the presence of the cosubstrate NADH (5). The decrease in the concentration of NADH due to its absorption maximum at 340 nm is thereby measured. From the measurement results, which are shown in the bar graph of FIG. 4, the inhibition of the conversion of benzamidoxime to benzamidine is evident by the lower consumption of NADH. NADH represents the required cosubstrate for the conversion. […] The down-regulation is only observed for mARC1 and not for mARC2 (FIG. 2).
(§2) 105 μl MES buffer (20 mM, pH 6.0) was placed in a micro-UV cuvette. […] This batch was then set as a blank sample and the absorbance was zeroed. […] Herein, the absorbance spectrum between 300 nm and 400 nm was recorded every 30 s for a period of 10 min (spectrophotometer Cary® 50 Bio with Walter peltier system PCB 150, Agilent). […] The conversion rates of BAO with and without inhibitor were compared based on the absorbance change at 340 nm to determine the degree of inhibition. […]

[1] = test system: cytochrome b5 and/or cytochrome b5 reductase; test: Inhibition of the electron transport partners, concluded from the non-inhibited mARC2 conversion; assay type: biochemical, human; details: concluded from the non-inhibited conversion for mARC2
Experimental: as §1, §2

human mARC2 = molecular target: T2, human mARC2 (Homo sapiens, UniProt Q969Z3); test: mARC2 three-component system (mARC2, cytochrome b5, cytochrome b5 reductase): conversion of benzamidoxime to benzamidine, NADH consumption at 340 nm / HPLC of benzamidine; assay type: biochemical; details: recombinant mARC2 + CYB5B + CYB5R3, NADH, substrate BAO; FIG. 2
T2 construct: made in house; host or cells: Escherichia coli
T2 sequence (Q969Z3 36-335): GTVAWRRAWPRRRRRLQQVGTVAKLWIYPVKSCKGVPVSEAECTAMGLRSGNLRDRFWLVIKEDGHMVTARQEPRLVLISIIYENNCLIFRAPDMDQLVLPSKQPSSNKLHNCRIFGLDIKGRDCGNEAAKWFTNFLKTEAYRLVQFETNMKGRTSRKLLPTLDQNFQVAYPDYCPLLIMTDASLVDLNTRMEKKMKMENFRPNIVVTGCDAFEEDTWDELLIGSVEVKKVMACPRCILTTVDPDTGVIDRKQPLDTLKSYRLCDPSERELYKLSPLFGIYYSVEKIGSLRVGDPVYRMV
Experimental: as §1, §2

| inhibition of the conversion of benzamidoxime to benzamidine by mARC1 (human mARC1) | inhibition of cytochrome b5 and/or cytochrome b5 reductase [1] | down-regulation of the conversion of benzamidoxime to benzamidine by mARC2 (human mARC2) | Structure (SMILES) |
| --- | --- | --- | --- |
| inhibition occurs |  |  | CCOC(=O)N(O)c1cccc(Cl)c1 [ethyl-N-(3-chlorophenyl)-hydroxycarbamate] |
| inhibition occurs | are not inhibited | not for mARC2 | CCOC(=O)NO [N-hydroxyurethane] |
